# Measured values published in patent publication US20260008787A1, “FUSED RING KRAS INHIBITORS FOR TREATING DISEASE” (BLOSSOMHILL THERAPEUTICS, INC., priority 2022, published 2026).
# Key:
# Assay type in all cases: cell-based
# [1] = test system: SW620 (KRAS G12V); assay: Cell proliferation assay (CellTiter-Glo, 72 hours), SW620; settings: Homo sapiens, SW-620, 72 h, 384-well, CellTiter-Glo 2.0
# Protocol: (§1) Two thousand KRAS mutant cells per well were seeded in 384-well white plate and then treated with indicated compounds for 72 hours at 37° C. and 5% CO2. Cell proliferation was measured using CellTiter-Glo 2.0 luciferase-based ATP detection assay (Promega, Madison, WI) following the manufacturer's protocol. IC50 values were determined using Prism software (GraphPad Software, San Diego, CA).
# [2] = test system: AGS (G12D); assay: Cell proliferation assay (CellTiter-Glo, 72 hours), AGS; settings: 72 h, 384-well, CellTiter-Glo 2.0
# Protocol: as §1
# [3] = test system: GP2D (KRAS G12D); assay: Cell proliferation assay (CellTiter-Glo, 72 hours), GP2D; settings: GP2d, 72 h, 384-well, CellTiter-Glo 2.0
# Protocol: as §1
SMILES,IC50 [1],IC50 [2],IC50 [3]
"C#Cc1c(F)ccc2cc(O)cc(-c3nc4c5c(nc(OC[C@@]67CCCN6C[C@H](F)C7)nc5c3F)N(C)[C@H](CO)CO4)c12 [Example 91, 5-ethynyl-6-fluoro-4-[(9R)-4-fluoro-2-{[(2R,7aS)-2-fluorotetrahydro-1H-pyrrolizin-7a(5H)-yl]methoxy}-9-(hydroxymethyl)-10-methyl-9,10-dihydro-8H-7-oxa-1,3,6,10-tetraazacyclohepta[1,2,3-de]naphthalen-5-yl]naphthalen-2-ol]",> 3000 nM,923 nM,543 nM
"CCc1c(F)ccc2cc(O)cc(-c3nc4c5c(nc(OC[C@@]67CCCN6C[C@H](F)C7)nc5c3F)N(C)[C@H](CO)CO4)c12 [Example 92, 5-ethyl-6-fluoro-4-[(9R)-4-fluoro-2-{[(2R,7aS)-2-fluorotetrahydro-1H-pyrrolizin-7a(5H)-yl]methoxy}-9-(hydroxymethyl)-10-methyl-9,10-dihydro-8H-7-oxa-1,3,6,10-tetraazacyclohepta[1,2,3-de]naphthalen-5-yl]naphthalen-2-ol]",579 nM,393 nM,348 nM
"C#Cc1c(F)ccc2cc(O)cc(-c3nc4c5c(nc(OC[C@@]67CCCN6C[C@H](F)C7)nc5c3F)N3C[C@@H](O)CC[C@@H]3CO4)c12 [Example 94, (8aR,11S)-5-(8-ethynyl-7-fluoro-3-hydroxynaphthalen-1-yl)-4-fluoro-2-{[(2R,7aS)-2-fluorotetrahydro-1H-pyrrolizin-7a(5H)-yl]methoxy}-8,8a,9,10,11,12-hexahydro-7-oxa-1,3,6,12a-tetraazabenzo[4,5]cyclohepta[1,2,3-de]naphthalen-11-ol]",> 3000 nM,> 3000 nM,1100 nM
"C#Cc1c(F)ccc2cc(O)cc(-c3nc4c5c(nc(OC[C@@]67CCCN6C[C@H](F)C7)nc5c3F)NC3(CC3)CO4)c12 [Example 95, 5-ethynyl-6-fluoro-4-(4′-fluoro-2′-{[(2R,7aS)-2-fluorotetrahydro-1H-pyrrolizin-7a(5H)-yl]methoxy}-8′H,10′H-spiro[cyclopropane-1,9′-[7]oxa[1,3,6,10]tetraazacyclohepta[1,2,3-de]naphthalen]-5′-yl)naphthalen-2-ol]",> 3000 nM,> 3000 nM,993 nM
"C#Cc1c(F)ccc2cc(O)cc(-c3nc4c5c(nc(OC[C@@]67CCCN6C[C@H](O)C7)nc5c3F)N3CCCC[C@H]3CO4)c12 [Example 97, (2R,7aS)-7a-({[(8aS)-5-(8-ethynyl-7-fluoro-3-hydroxynaphthalen-1-yl)-4-fluoro-8,8a,9,10,11,12-hexahydro-7-oxa-1,3,6,12a-tetraazabenzo[4,5]cyclohepta[1,2,3-de]naphthalen-2-yl]oxy}methyl)hexahydro-1H-pyrrolizin-2-ol]",1180 nM,385 nM,916 nM
"CCc1c(F)ccc2cc(O)cc(-c3nc4c5c(nc(OC[C@@]67CCCN6C[C@H](F)C7)nc5c3F)N[C@H](CO)CO4)c12 [Example 100, 5-ethyl-6-fluoro-4-[(9R)-4-fluoro-2-{[(2R,7aS)-2-fluorotetrahydro-1H-pyrrolizin-7a(5H)-yl]methoxy}-9-(hydroxymethyl)-9,10-dihydro-8H-7-oxa-1,3,6,10-tetraazacyclohepta[1,2,3-de]naphthalen-5-yl]naphthalen-2-ol]",> 3000 nM,> 3000 nM,> 3000 nM
"C#Cc1c(F)ccc2cc(O)cc(-c3nc4c5c(nc(OC[C@@]67CCCN6C[C@@H](O)C7)nc5c3F)N3CCCC[C@H]3CO4)c12 [Example 101, (2S,7aS)-7a-({[(8aS)-5-(8-ethynyl-7-fluoro-3-hydroxynaphthalen-1-yl)-4-fluoro-8,8a,9,10,11,12-hexahydro-7-oxa-1,3,6,12a-tetraazabenzo[4,5]cyclohepta[1,2,3-de]naphthalen-2-yl]oxy}methyl)hexahydro-1H-pyrrolizin-2-ol]",> 3000 nM,> 3000 nM,880 nM
"C#Cc1c(F)ccc2cc(O)cc(-c3nc4c5c(nc(OC[C@@]67CCCN6C[C@H](F)C7)nc5c3F)N[C@H]3CCC[C@H]3O4)c12 [Example 102, 5-ethynyl-6-fluoro-4-[(7aR,10aS)-4-fluoro-2-{[(2R,7aS)-2-fluorotetrahydro-1H-pyrrolizin-7a(5H)-yl]methoxy}-7a,8,9,10,10a,11-hexahydro-7-oxa-1,3,6,11-tetraazanaphtho[1,8-fg]azulen-5-yl]naphthalen-2-ol]",> 3000 nM,> 3000 nM,> 3000 nM
"C#Cc1c(F)ccc2cc(O)cc(-c3nc4c5c(nc(OC[C@@]67CCCN6C[C@H](F)C7)nc5c3F)N3CC(F)CC[C@H]3CO4)c12 (stereo partly drawn) [Example 105, 4-[(4R,7S)-4,13-difluoro-16-[[(2R,8S)-2-fluoro-1,2,3,5,6,7-hexahydropyrrolizin-8-yl]methoxy]-9-oxa-2,11,15,17-tetrazatetracyclo[8.7.1.0^2,7.0^14,18]octadeca-1 (17),10 (18),11,13,15-pentaen-12-yl]-5-ethynyl-6-fluoro-naphthalen-2-ol]",86.2 nM,81 nM,21.6 nM
"C#Cc1c(F)ccc2cc(O)cc(-c3nc4c5c(nc(OC[C@@]67CCCN6C[C@H](F)C7)nc5c3F)N3C=CCC[C@H]3CO4)c12 [Example 107, 5-ethynyl-6-fluoro-4-[(7S)-13-fluoro-16-[[(2R,8S)-2-fluoro-1,2,3,5,6,7-hexahydropyrrolizin-8-yl]methoxy]-9-oxa-2,11,15,17-tetrazatetracyclo [8.7.1.0^2,7.0^14,18]octadeca-1 (17),3,10 (18),11,13,15-hexaen-12-yl]naphthalen-2-ol]",1040 nM,1130 nM,749 nM
"C#Cc1c(F)ccc2cc(O)cc(-c3nc4c5c(nc(OC[C@@]67CCCN6C[C@H](F)C7)nc5c3F)N(CC)CCO4)c12 [Example 108, 4-(10-ethyl-4-fluoro-2-{[(2R,7aS)-2-fluorotetrahydro-1H-pyrrolizin-7a(5H)-yl]methoxy}-9,10-dihydro-8H-7-oxa-1,3,6,10-tetraazacyclohepta[1,2,3-de]naphthalen-5-yl)-5-ethynyl-6-fluoronaphthalen-2-ol]",195 nM,42.7 nM,13.8 nM
"CCc1c(F)ccc2cc(O)cc(-c3nc4c5c(nc(OC[C@@]67CCCN6C[C@H](F)C7)nc5c3F)NCCC4)c12 [Example 117, 5-ethyl-6-fluoro-4-(4-fluoro-2-{[(2R,7aS)-2-fluorotetrahydro-1H-pyrrolizin-7a(5H)-yl]methoxy}-7,8,9,10-tetrahydro-1,3,6,10-tetraazacyclohepta[1,2,3-de]naphthalen-5-yl)naphthalen-2-ol]",> 3000 nM,> 3000 nM,> 3000 nM
"C#Cc1c(F)ccc2cc(O)cc(-c3nc4c5c(nc(OC[C@@]67CCCN6C[C@H](F)C7)nc5c3F)N3C[C@@](C)(O)CC[C@H]3CO4)c12 [Example 120, (8aS,11S)-5-(8-ethynyl-7-fluoro-3-hydroxynaphthalen-1-yl)-4-fluoro-2-{[(2R,7aS)-2-fluorotetrahydro-1H-pyrrolizin-7a(5H)-yl]methoxy}-11-methyl-8,8a,9,10,11,12-hexahydro-7-oxa-1,3,6,12a-tetraazabenzo[4,5]cyclohepta[1,2,3-de]naphthalen-11-ol]",> 3000 nM,> 3000 nM,> 3000 nM
